Read-outs that look alike come from different tables or passages of the source. Each block holds one compound with its values, some of them ahead of it. Numbered stars: 1 amine (or outer) side, 2 acyl side, 3 side chain; on linkers, the order of the positions; unused ones are H or OH. Bridge positions count the residues as written; N and C are the ends. Square brackets hold non-standard residues; d marks the D form. Peptide text beside a SMILES is read from it. * marks the point of attachment. X17 = N=c1ccc2c(-c3ccc(C(=O)NCCC(=O)N4Cc5ccccc5-c5c(nnn5CCCCCC(=O)NCCCOCCOCCOCCCNC(=O)CCC(=O)NCCCOCCOCCOCCCN*)-c5ccccc54)cc3C(=O)O)c3ccc(N)c(S(=O)(=O)O)c3oc-2c1S(=O)(=O)O; X3 = O=C(O)CN1CCN(CC(=O)O)CCN(CC(=O)NCCCOCCOCCOCCCN*)CCN(CC(=O)O)CC1; X18 = O=C(O)c1cccc(CN2CCOCCOCCN(Cc3cc(N*)cc(C(=O)O)n3)CCOCCOCC2)n1; DOTA = O=C(O)CN1CCN(CC(=O)O)CCN(CC(=O)*)CCN(CC(=O)O)CC1; X20 = CN(CCC[C@H](N[*:1])C(=O)[*:2])C(=N)N; Phe(4-Cl) = N[C@@H](Cc1ccc(Cl)cc1)C(=O)O; Arg(Me) = CNC(=N)NCCC[C@H](N)C(=O)O; Glutaryl = O=C(CCCC(=O)[*:2])[*:1]; X1 = O=C(CC1CCN([*:1])CC1)[*:2]; Cit = NC(=O)NCCC[C@H](N)C(=O)O; Lys(Me) = CNCCCC[C@H](N)C(=O)O; Suc = O=C(CCC(=O)[*:2])[*:1]; Tle = CC(C)(C)[C@H](N)C(=O)O; Aib = CC(C)(N)C(=O)O
Assays:
[1] = molecular target: T1, Fc-fusion protein of human PSMA (hPSMA-Fc) (Homo sapiens, UniProt Q04609); test: Surface plasmon resonance assay (Biacore T200, single cycle kinetic); assay type: binding; conditions: hPSMA-Fc, 25° C., read-out: pKD CAT (converted)
T1 construct: purchased Acro Biosystems PSA-H5264
Protocol: Surface plasmon resonance (SPR) studies were performed using a Biacore™ T200 SPR system. Briefly, polarized light is directed towards a gold-labeled sensor surface, and minimum intensity reflected light is detected. The angle of reflected light changes as molecules bind and dissociate.
Fc-fusion protein of human PSMA (hPSMA-Fc, Acro Biosystems, Cat #PSA-H5264) was captured on a Fc-capture chip (Biacore™ CM5 sensor chip coated with ˜300 RU of an Fc-binding peptide). hPSMA-Fc was diluted in Running Buffer (HBST, 0.1% DMSO) to a final concentration of 100 nM and then flushed over the Fc-capture chip to immobilized ˜1000 RUs.
Stock solutions of test compounds were prepared by dissolving each compound in DMSO. DMSO stock solution were diluted 1:1000 in Running Buffer without DMSO. Further sequential dilutions were made with Running Buffer containing 0.1% DMSO. SPR binding analyses were performed in Single Cycle Kinetic (SCK) mode at 25° C. Flow cell coated with the Fc-binding peptide only served as reference flowcell. After each SCK run, hPSMA-Fc was removed with 10 mM glycine buffer, pH 1.5.
In between every three SCK measurements, a blank run with Running Buffer instead of test compound was included to correct for baseline drifts (double blanking method).
Table 5 describes the protocol steps for Fc-fusion target capturing and assessment of the binding kinetics.
For each test compound, SPR raw data in the form of resonance units (RU) were plotted as sensorgrams using the Biacore™ T200 control software. The signal from the blank sensorgram was subtracted from that of the test compound sensorgram (blank corrected). The blank corrected sensorgram was corrected for baseline drift by subtracting the sensorgram of a SCK run without the test compound (running buffer only). The dissociation constant (KD) was calculated from Blank-normalized SPR data using the 1:1 Langmuir binding model from the Biacore™ Insight Evaluation software. The pKD value (negative decadic logarithm of dissociation constant) was calculated using Microsoft Excel.

[2] = molecular target: T2, PSMA-expressing C4-2 cells (Homo sapiens, UniProt Q04609); test: FACS binding assay (competition with 50 nM PSM-0183); conditions: C4-2 cells, read-out: pIC50 [C4-2] CAT (converted)
T2 construct: PSMA-expressing C4-2 cells (ATCC, Cat. No. CRL-3314) were cultured in RPMI-1640; host or cells: C4-2 cells
Protocol: In order to determine binding of compounds according to the present invention to PSMA-expressing cells, a FACS binding assay was established.
PSMA-expressing C4-2 cells (ATCC, Cat. No. CRL-3314) were cultured in RPMI-1640 (Pan Biotech, Cat. No. P04-18050) including 10% fetal calf serum (Biochrom) and 100 U/ml penicillin and 100 μg/mL streptomycin (Sigma, Cat. No. P0781). Cells were detached with Accutase (Biolegend, Cat. No. BLD-423201) and washed in FACS buffer (PBS (Sigma, Cat. No. D8537) including 1% fetal calf serum). Cells were diluted in FACS buffer to a final concentration of 500,000 cells per mL. 200 μL of the cell suspension were transferred to a u-shaped non-binding 96-well plate (Greiner Bio-One, Cat. No. 650901) and cells were washed in ice-cold FACS buffer.
For IC50 determination, C4-2 cells were incubated with 50 nM PSM-0183 (Ac-Thr-Aib-Phe[Cys-Lys-Arg-Aib-Asn-Cys]-Tle-Thr-Asp-Ttds-Ttds-AF488N3K-NH2) in the presence of increasing concentrations of test compounds at 4° C. for 1 hour. After two wash steps with ice-cold FACS buffer, cells were analyzed in an Attune NxT flow cytometer. Median fluorescence intensities (MFI) of the FITC/AF488-channel were calculated by Attune NxT software. MFI values were plotted against peptide concentration and four parameter logistic (4PL) curve fitting and IC50/pIC50 calculations were performed using ActivityBase software (IDBS).

T2 sequence (Q04609 whole entry): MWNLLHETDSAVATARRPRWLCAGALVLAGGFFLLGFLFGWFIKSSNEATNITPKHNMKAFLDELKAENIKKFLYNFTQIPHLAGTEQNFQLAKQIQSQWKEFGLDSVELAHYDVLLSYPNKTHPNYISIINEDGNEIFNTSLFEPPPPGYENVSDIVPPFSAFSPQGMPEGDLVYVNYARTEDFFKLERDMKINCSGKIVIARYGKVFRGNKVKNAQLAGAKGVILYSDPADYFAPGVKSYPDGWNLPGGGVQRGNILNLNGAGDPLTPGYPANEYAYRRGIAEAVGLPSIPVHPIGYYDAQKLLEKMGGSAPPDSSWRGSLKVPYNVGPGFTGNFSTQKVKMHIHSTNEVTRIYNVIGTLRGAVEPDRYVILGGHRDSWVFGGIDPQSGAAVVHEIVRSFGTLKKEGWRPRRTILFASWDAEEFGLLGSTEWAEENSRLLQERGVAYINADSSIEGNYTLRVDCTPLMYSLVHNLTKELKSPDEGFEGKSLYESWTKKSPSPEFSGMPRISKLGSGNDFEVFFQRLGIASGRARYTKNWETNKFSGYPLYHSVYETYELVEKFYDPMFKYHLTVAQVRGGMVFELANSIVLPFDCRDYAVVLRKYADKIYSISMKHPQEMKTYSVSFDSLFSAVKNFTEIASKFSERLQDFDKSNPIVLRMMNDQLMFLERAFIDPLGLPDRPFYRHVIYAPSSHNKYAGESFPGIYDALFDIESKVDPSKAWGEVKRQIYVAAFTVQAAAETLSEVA
T1 sequence (Q04609 44-750 limits assumed): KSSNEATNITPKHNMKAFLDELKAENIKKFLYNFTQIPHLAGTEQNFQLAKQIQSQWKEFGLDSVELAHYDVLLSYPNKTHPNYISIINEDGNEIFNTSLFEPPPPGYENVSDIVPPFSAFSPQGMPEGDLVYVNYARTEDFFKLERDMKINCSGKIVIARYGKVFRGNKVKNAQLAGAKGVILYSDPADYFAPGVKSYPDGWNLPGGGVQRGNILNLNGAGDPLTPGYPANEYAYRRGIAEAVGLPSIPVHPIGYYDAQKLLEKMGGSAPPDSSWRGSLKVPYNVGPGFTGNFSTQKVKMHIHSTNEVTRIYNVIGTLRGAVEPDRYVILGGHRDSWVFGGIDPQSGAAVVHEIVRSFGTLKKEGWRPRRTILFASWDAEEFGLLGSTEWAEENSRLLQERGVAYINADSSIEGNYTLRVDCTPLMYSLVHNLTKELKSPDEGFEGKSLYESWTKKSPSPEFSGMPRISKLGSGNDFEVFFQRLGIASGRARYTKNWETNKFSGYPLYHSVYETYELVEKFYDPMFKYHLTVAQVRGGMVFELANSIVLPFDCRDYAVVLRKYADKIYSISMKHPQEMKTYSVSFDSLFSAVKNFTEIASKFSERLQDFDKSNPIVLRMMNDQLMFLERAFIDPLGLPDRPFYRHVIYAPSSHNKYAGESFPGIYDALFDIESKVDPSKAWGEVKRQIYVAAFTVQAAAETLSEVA

Compound: CSCC[C@@H]1NC(=O)C(C)(C)NC(=O)[C@H](CCCNC(N)=O)NC(=O)[C@H](CCCCN)NC(=O)[C@@H](NC(=O)[C@H](Cc2ccc(Cl)cc2)NC(=O)C(C)(C)NC(=O)[C@@H](NC(C)=O)[C@@H](C)O)CSSC[C@@H](C(=O)N[C@H](C(=O)N[C@H](C(N)=O)[C@@H](C)O)C(C)(C)C)NC1=O [PSM-0229, Ac-Thr-Aib-Pcf-[Cys-Lys-Arg-Aib-Met-Cys]-Tle-Thr-NH2] (Ac-T[Aib][Phe(4-Cl)]CK[Cit][Aib]MC[Tle]T-NH2; disulfide 4-9)
Kd ([1]; SPR, single cycle kinetic, category): < 12.6 nM

Compound: CC(C)C[C@H](NC(=O)[C@@H]1CSSC[C@H](NC(=O)[C@H](Cc2ccccc2)NC(=O)[C@H](C)NC(=O)[C@@H](NC(=O)CCC(=O)NCCCOCCOCCOCCCNC(=O)CN2CCN(CC(=O)O)CCN(CC(=O)O)CCN(CC(=O)O)CC2)[C@@H](C)O)C(=O)N[C@@H](CCCCN)C(=O)N[C@@H](CCCNC(=N)N)C(=O)N[C@@H](C)C(=O)N[C@@H](CC(N)=O)C(=O)N1)C(=O)N[C@H](C(=O)N[C@@H](CC(=O)O)C(N)=O)[C@@H](C)O [PSM-0251, DOTA-Ttds-Thr-Ala-Phe-[Cys-Lys-Arg-Ala-Asn-Cys]-Leu-Thr-Asp-NH2] ({X3-Suc}-TAFCKRANCLTD-NH2; disulfide 4-9)
IC50 ([2]; FACS binding, competition with 50 nM PSM-0183, category): 200 to 1260 nM

Compound: C[C@@H](O)[C@H](NC(=O)CCC(=O)NCCCOCCOCCOCCCNC(=O)CCC(=O)NCCCOCCOCCOCCCNC(=O)CCCCCn1nnc2c1-c1ccccc1CN(C(=O)CCNC(=O)c1ccc(-c3c4ccc(=N)c(S(=O)(=O)O)c-4oc4c(S(=O)(=O)O)c(N)ccc34)c(C(=O)O)c1)c1ccccc1-2)C(=O)NC(C)(C)C(=O)N[C@@H](Cc1ccccc1)C(=O)N[C@H]1CSSC[C@@H](C(=O)N[C@H](C(=O)N[C@H](C(=O)N[C@@H](CC(=O)O)C(N)=O)[C@@H](C)O)C(C)(C)C)NC(=O)[C@H](CC(N)=O)NC(=O)C(C)(C)NC(=O)[C@H](CCCNC(=N)N)NC(=O)[C@H](CCCCN)NC1=O [PSM-0272, AF488Ahx-Ttds-Ttds-Thr-Aib-Phe-[Cys-Lys-Arg-Aib-Asn-Cys]-Tle-Thr-Asp-NH2] ({X17-Suc}-T[Aib]FCKR[Aib]NC[Tle]TD-NH2; disulfide 4-9)
Kd ([1]; PSMA SPR assay, pKD category): < 12.6 nM

The remaining lines, values ahead:

IC50 ([2]; pIC50 category of FACS binding): < 200 nM
Compound: CNCCCC[C@@H]1NC(=O)[C@@H](NC(=O)[C@H](Cc2ccc(Cl)cc2)NC(=O)C(C)(C)NC(=O)[C@@H](NC(=O)CC2CCN(C(=O)CCCC(=O)Nc3cc(CN4CCOCCOCCN(Cc5cccc(C(=O)O)n5)CCOCCOCC4)nc(C(=O)O)c3)CC2)[C@@H](C)O)CSSC[C@@H](C(=O)N[C@H](C(=O)N[C@H](C(N)=O)[C@@H](C)O)C(C)(C)C)NC(=O)[C@H](CC(N)=O)NC(=O)C(C)(C)NC(=O)[C@H](CCCNC(=N)NC)NC1=O [PSM-0515, Macropa-Cmp-Thr-Aib-Pcf-[Cys-Lys(Me)-Arg(Me)-Aib-Asn-Cys]-Tle-Thr-NH2] ({X18-Glutaryl}-[X1]T[Aib][Phe(4-Cl)]C[Lys(Me)][Arg(Me)][Aib]NC[Tle]T-NH2; disulfide 5-10)

IC50 ([2]; FACS binding, category): < 200 nM
Compound: CNCCCC[C@@H]1NC(=O)[C@@H](NC(=O)[C@H](Cc2ccc(Cl)cc2)NC(=O)C(C)(C)NC(=O)[C@@H](NC(=O)CC2CCN(C(=O)CN3CCN(CC(=O)O)CCN(CC(=O)O)CCN(CC(=O)O)CC3)CC2)[C@@H](C)O)CSSC[C@@H](C(=O)N[C@H](C(=O)N[C@H](C(N)=O)[C@@H](C)O)C(C)(C)C)NC(=O)[C@H](CC(N)=O)NC(=O)C(C)(C)NC(=O)[C@H](CCCN(C)C(=N)N)NC1=O [PSM-0592, DOTA-Cmp-Thr-Aib-Pcf-[Cys-Lys(Me)-RMe1-Aib-Asn-Cys]-Tle-Thr-NH2] ({DOTA}-[X1]T[Aib][Phe(4-Cl)]C[Lys(Me)][X20][Aib]NC[Tle]T-NH2; disulfide 5-10)
